The source of these data is patent publication EP1079826B1, “USE OF INDIGOID BISINDOLE DERIVATIVES FOR THE MANUFACTURE OF A MEDICAMENT TO INHIBIT CYCLIN DEPENDENT KINASES” (CNRS, Centre National de la Recherche Scientifique, priority 1998, dated 1999).

Read-outs that look alike come from different tables or passages of the source.

The test system of one experiment is CDK1. To be noted: Table 1, known inhibitors; roscovitine value for racemic mixture; cited from earlier work.
Another experiment concerns MAPK. To be noted: Table 1, known inhibitors; cited from earlier work.
In experiment [1] the test system is PKC. To be noted: Table 1, known inhibitors; cited from earlier work.
Experiment [2] deals with epidermal growth factor receptor tyrosine kinase (Homo sapiens, UniProt P00533). To be noted: Table 1, known inhibitors; read-out: IC50 Tyrosine-kinase (EGF-R); cited from earlier work.
Chain of epidermal growth factor receptor tyrosine kinase (P00533 25-1210): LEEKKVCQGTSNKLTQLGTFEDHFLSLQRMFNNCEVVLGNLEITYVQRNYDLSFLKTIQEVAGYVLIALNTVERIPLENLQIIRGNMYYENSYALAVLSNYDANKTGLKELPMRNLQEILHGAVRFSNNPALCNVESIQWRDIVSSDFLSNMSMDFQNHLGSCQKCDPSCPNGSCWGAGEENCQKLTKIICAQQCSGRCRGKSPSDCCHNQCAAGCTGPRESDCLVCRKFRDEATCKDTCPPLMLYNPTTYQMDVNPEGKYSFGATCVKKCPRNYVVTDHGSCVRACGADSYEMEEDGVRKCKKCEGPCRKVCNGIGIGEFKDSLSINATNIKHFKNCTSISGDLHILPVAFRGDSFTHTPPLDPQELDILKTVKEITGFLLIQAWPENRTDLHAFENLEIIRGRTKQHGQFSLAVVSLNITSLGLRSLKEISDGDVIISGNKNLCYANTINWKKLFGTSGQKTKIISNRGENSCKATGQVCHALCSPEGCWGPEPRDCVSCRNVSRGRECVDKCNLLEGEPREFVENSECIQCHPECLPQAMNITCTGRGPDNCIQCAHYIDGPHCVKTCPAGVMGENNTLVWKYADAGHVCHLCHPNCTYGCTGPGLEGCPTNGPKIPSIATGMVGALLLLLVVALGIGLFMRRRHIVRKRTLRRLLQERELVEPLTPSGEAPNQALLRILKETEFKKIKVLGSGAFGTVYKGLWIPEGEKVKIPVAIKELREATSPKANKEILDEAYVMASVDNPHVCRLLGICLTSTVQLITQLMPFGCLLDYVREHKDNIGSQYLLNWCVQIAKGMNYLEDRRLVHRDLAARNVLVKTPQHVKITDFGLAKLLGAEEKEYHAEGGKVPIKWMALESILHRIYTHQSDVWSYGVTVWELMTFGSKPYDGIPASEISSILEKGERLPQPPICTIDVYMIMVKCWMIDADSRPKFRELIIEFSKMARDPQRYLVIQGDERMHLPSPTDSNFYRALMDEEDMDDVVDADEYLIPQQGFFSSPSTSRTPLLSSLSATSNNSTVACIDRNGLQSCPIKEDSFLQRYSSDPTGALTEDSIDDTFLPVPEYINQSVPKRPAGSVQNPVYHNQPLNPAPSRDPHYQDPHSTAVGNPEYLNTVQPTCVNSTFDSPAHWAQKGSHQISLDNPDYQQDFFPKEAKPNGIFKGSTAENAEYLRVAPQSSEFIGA
The target in a further experiment is p34^cdc2/cyclinB. Briefly: p34cdc2/cyclin B kinase assay (histone H1 phosphorylation, [γ-32P] ATP). In kind it is biochemical, starfish (Marthasterias glacialis). On the procedure:
J. Biochem., 243, (1997), 527-536). […] After 10 min. incubation at 30°C, 25 μl aliquots of supernatant were spotted onto 2.5 x 3 cm pieces of Whatman P81 phosphocellulose paper, and after 20 sec., the filters were washed five times (for at least 5 min. each time) in a solution of 10 ml phosphoric acid/liter of water. The wet filters were transferred into 6 ml plastic scintillation vials, 5 ml ACS (Amersham) scintillation fluid was added and the radioactivity measured in a Packard scintillation counter.

A further experiment relates to cdc25. Briefly: cdc25 inhibition (specificity panel). To be noted: Table 3. The format is biochemical.
The test system of experiment [3] is PKC. Briefly: PKC inhibition (specificity panel). In kind it is biochemical. To be noted: Ca2+-dependent protein kinase, Table 3.
For experiment [4] the following is noted: compared with indirubine; cited from earlier work.
Another experiment deals with CDK4/ cyclin D1 (Homo sapiens, UniProt P11802). Briefly: kinase inhibition selectivity, CDK4/cyclin D1. The format is biochemical.
Chain of CDK4/ cyclin D1 (P11802 whole entry, species assumed): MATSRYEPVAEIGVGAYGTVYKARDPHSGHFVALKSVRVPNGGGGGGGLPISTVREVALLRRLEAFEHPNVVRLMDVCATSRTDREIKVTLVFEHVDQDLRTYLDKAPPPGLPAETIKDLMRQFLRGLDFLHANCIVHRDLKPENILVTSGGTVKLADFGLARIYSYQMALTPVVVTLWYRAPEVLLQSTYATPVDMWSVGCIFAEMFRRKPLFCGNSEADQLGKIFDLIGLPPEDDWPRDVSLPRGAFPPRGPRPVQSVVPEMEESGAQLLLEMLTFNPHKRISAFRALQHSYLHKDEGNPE
Chain of CDK4/ cyclin D1 (P24385 whole entry partner, species assumed): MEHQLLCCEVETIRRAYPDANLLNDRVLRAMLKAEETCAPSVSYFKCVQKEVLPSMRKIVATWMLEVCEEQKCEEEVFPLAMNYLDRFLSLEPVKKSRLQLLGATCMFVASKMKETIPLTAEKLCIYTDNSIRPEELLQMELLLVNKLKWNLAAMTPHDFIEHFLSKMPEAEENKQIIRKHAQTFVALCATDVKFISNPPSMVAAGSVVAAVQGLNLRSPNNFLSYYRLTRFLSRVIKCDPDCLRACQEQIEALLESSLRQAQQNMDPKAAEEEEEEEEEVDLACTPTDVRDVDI
A further experiment deals with CDK5/ p35 (Homo sapiens, UniProt Q00535). Briefly: kinase inhibition selectivity, CDK5/p35. The format is biochemical.
Chain of CDK5/ p35 (Q00535 whole entry, species assumed): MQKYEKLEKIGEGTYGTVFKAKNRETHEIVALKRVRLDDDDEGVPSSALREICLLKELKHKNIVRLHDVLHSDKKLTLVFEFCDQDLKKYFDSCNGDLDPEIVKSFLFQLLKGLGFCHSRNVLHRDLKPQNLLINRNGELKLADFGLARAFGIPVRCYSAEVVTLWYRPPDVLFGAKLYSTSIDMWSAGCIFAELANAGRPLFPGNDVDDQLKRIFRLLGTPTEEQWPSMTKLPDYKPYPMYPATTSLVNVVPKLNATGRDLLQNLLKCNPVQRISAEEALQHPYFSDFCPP
Chain of CDK5/ p35 (Q15078 whole entry partner, species assumed): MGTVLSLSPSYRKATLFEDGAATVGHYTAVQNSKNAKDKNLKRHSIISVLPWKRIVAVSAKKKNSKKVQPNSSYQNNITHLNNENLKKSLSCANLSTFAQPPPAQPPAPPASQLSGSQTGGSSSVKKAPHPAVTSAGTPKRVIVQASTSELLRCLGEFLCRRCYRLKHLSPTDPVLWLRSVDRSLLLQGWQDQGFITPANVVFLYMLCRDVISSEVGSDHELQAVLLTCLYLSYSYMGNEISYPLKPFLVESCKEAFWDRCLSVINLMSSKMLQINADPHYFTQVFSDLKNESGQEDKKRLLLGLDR
A further experiment addresses CDK2/ cyclin A (Homo sapiens, UniProt P24941). Briefly: biochemical.
The target in another experiment is CDK2/ cyclin E (Homo sapiens, UniProt P24941). The experiment can be described thus: biochemical.
The subject of a further experiment is CDK1/cyclin B. The experiment can be described thus: histone H1 phosphorylation as a measure for CDK1/cyclin B activity in cell culture. In kind it is cell-based, human. To be noted: after 24 h incubation of MCF-7 mammary carcinoma cells. The source says:
An inhibition of p34^cdc2-kinase by indigoid bisindole derivatives is not described in the prior art.

For experiment [5], the system named is MCF-7 mammary carcinoma cells. The experiment can be described thus: cell cycle arrest in cell culture. The format is cell-based, human. As to the method:
(§1) An inhibition of p34^cdc2-kinase by indigoid bisindole derivatives is not described in the prior art. […] In concentrations ≥ 5 µM, an additional arrest at G2/M-phase of the cell cycle became apparent.

In experiment [6] the test system is MCF-7 mammary carcinoma cells. The experiment can be described thus: growth inhibition in cell culture. The format is cell-based. To be noted: Homo sapiens, MCF7, 72 h; after 3 days incubation; 50% growth inhibition as compared to vehicle control. On the procedure: as §1
Experiment [7] relates to MCF-7 mammary carcinoma cells. The experiment can be described thus: induction of apoptotic cell death in cell culture. The format is cell-based, human. As to the method: as §1
The subject of another experiment is PKG. To be noted: Table 1, known inhibitors; cited from earlier work.
Experiment [8] relates to chronic myelogenous leukemia. To be noted: cases of chronic myelogenous leukemia; cited from earlier work.
[9] abbreviates: cdc2 kinase, Table 3, read-out: IC50 cdc2.
Where [10] appears, read: calculated from dose response curves, Table 4, read-out: IC50 CDK1/ cyclin B.
Setting [11] is: cells arrested by serum deprivation, treatment for 24 h in serum containing medium.
Setting [12] is: calculated from dose response curves, Table 4, read-out: IC50 CDK5/ p35.

With `Cc1c2ccncc2c(C)c2c1[nH]c1ccc(O)cc12` [9-Hydroxy-ellipticine, 9-Hydroxyellipticin], the IC50 in the experiment with CDK1 is about 1000 nM.
Turning to `COC(=O)C1(Cc2ccc(O)c(CC=C(C)C)c2)OC(=O)C(O)=C1c1ccc(O)cc1` (stereo not drawn) [Butyro-lactone-I, Butyrolactone-I], the IC50 in the experiment with CDK1 was […]; with MAPK it was 94 µM; in the experiment with PKC [1], 160 µM; in [2] it was over 590 µM.
As for `O=C1Nc2ccc(I)cc2/C1=C1/Nc2ccccc2C1=O` [Example 2, 5-Iodoindirubine], the results for the IC50 at p34^cdc2/cyclinB (setting [9]) and in the experiment on cdc25 were 0.3 µM and 130 µM, respectively. Further, in the experiment with PKC [3], the “IC50 PKC” value is listed as “no Effect”. Besides, the antitumor activity entry in experiment [4] is given as “superior to that of indirubine”.
As for `O=C1Nc2ccc(Br)cc2/C1=C1/Nc2ccccc2C1=O` [Example 3, 5-Bromoindirubine], the values for the IC50 on p34^cdc2/cyclinB (setting [9]) and in the experiment on cdc25 were 0.35 µM and 32 µM, respectively.
Take `O=C1Nc2ccc(Cl)cc2/C1=C1/Nc2ccccc2C1=O` [Example 4, 5-Chloroindirubine]: the IC50 at p34^cdc2/cyclinB (setting [10]) is 0.4 µM; on p34^cdc2/cyclinB (setting [9]) it was 0.4 µM; in the experiment with cdc25 it was 55 µM; at CDK4/ cyclin D1 it was 6.5 µM; against CDK5/ p35 it was 800 nM; on CDK2/ cyclin A, 750 nM. In addition, the IC50 on CDK2/ cyclin E came out at 0.55 µM.
As for `O=C1Nc2ccc(F)cc2/C1=C1/Nc2ccccc2C1=O` [Example 5, 5-Fluoroindirubine], the IC50 at p34^cdc2/cyclinB (setting [9]) worked out at 2 µM; with cdc25, 70 µM.
As to `Cc1ccc2c(c1)C(=C1Nc3ccccc3C1=O)C(=O)N2` [Example 6, 5-Methylindirubine], the IC50 is 0.8 µM at p34^cdc2/cyclinB (setting [9]) and 60 µM in the experiment with cdc25.
On the same counts, the results for `O=C1Nc2ccc([N+](=O)[O-])cc2/C1=C1/Nc2ccccc2C1=O` [Example 7, 5-Nitroindirubine] are 2.2 µM and 60 µM.
As for `O=C1Nc2ccccc2/C1=C1/Nc2ccc(Br)cc2C1=O` [Example 8, 5'-Bromoindirubine], the IC50 on p34^cdc2/cyclinB (setting [9]) came out at 6.5 µM.
For `O=C1Nc2ccc(Br)cc2/C1=C1/Nc2ccc(Br)cc2C1=O` [Example 9, 5,5'-Dibromoindirubine], the IC50 on p34^cdc2/cyclinB (setting [9]) came to 7 µM.
In the case of `O=C1Nc2ccccc2C1=C1Nc2ccccc2C1=NO` [Example 10, Indirubine-3'-oxime], in the experiment with CDK1/cyclin B, the “content of cyclin B complex” value is reported as “significantly reduced” and the “histone H1 phosphorylation as a measure for CDK1/cyclin B activity” value was “inhibit histone H1 phosphorylation”. In experiment [5] (setting [11]), the “arrest in G1-phase of the cell cycle” value is reported as “low micromolar concentrations” and the “concentration at which additional arrest at G2/M-phase of the cell cycle became apparent” value is given as at least 5 µM. Also, the “concentration giving significant increase of G2/M arrested cells” value in [5] (cells arrested in G2/M by Nocodazole treatment, after release of the block) is on record as at least 5 µM. Further, the IC50 in [6] was 3.3 ± 0.7 µM. The apoptotic cell death result in experiment [7] is reported as “induction of apoptotic cell death was observed”. The same molecule returned an IC50 against CDK2/ cyclin A of 440 nM. This molecule returned an IC50 at CDK2/ cyclin E of 0.25 µM.
With `O=C1Nc2ccc(S(=O)(=O)O)cc2C1=C1Nc2ccccc2C1=O` [Example 11, Indirubine-5-sulfonic acid], the IC50 is 0.055 µM at p34^cdc2/cyclinB (setting [10]), 0.055 µM on p34^cdc2/cyclinB (setting [9]), 110 µM with cdc25 and 65 nM at CDK5/ p35 (setting [12]).
Turning to `O=C1Nc2ccccc2/C1=C1\C(=O)Nc2ccccc21` [Example 12, Isoindigo], the IC50 at p34^cdc2/cyclinB (read-out: IC50-value for the p34^cdc2/cyclinB complex) worked out at 80 µM.
In the case of `CN1CC[C@H](c2c(O)cc(O)c3c(=O)cc(-c4ccccc4Cl)oc23)[C@H](O)C1` [Flavopiridol], the IC50 in the experiment on PKG was 6 µM.
For the molecule `CN[C@@H]1C[C@H]2O[C@@](C)([C@@H]1OC)n1c3ccccc3c3c4c(c5c6ccccc6n2c5c31)C(=O)NC4` [Staurosporine], in the experiment on PKG, the IC50 was 0.009 µM.
As for `CN[C@@H]1C[C@H]2O[C@@](C)([C@@H]1OC)n1c3ccccc3c3c4c(c5c6ccccc6n2c5c31)C(=O)N[C@@H]4O` [UCN-01], the IC50 with CDK1 was 31 nM; with PKC [1] it was […].
Consider `O=C1/C(=C2\Nc3ccccc3C2=O)Nc2ccccc21` [indigo], for which the IC50 is over 1000 µM at p34^cdc2/cyclinB (setting [10]); over 100 µM at CDK4/ cyclin D1 (calculated from dose response curves, Table 4, read-out: IC50 CDK4/ cyclin D1); over 100000 nM on CDK5/ p35 (setting [12]); 70000 nM against CDK2/ cyclin A; over 1000 µM against CDK2/ cyclin E.
Take `CN1C(=O)/C(=C2/C(=O)Nc3ccccc32)c2ccccc21` [meisoindigo, N-Methyl-isoindigo]: in [8], the “complete and partial remission rate” value was 81.3%; the total response rate is reported as 90.1%.
